Converted amounts (≈) assume the structure as drawn.

In one assay the test system is anaphylactic asthma in guinea pigs. The assay is described as follows: Antagonistic action on anaphylactic asthma in guinea pigs. The format is in vivo, Male Hartley-strain guinea pigs. The settings on record: Cavia porcellus; oral, 30 min before 5% egg-white albumin aerosol; passively sensitized guinea pigs, 5 per group; survival for not less than 2 hours; read-out: Prophylactic Effect ED50. Here is the method:
Antagonistic action on anaphylactic asthma in guinea pigs.
Male Hartley-strain guinea pigs weighing 305-400g were used. These animals were sensitized by intravenous injection of 0.5 ml/animal of rabbit antiserum to egg-white albumin (PCA antibody titer 4,000). After 24 hours, the animals were housed individually in 5.3-liter plastic chambers. Using a commercial sprayer, a 5% egg-white albumin solution was sprayed in the form of an aerosol into each chamber at a rate of 0.16 ml/min for 2 minutes. Thirty minutes prior to the spraying of the egg-white albumin solution, the test compound was administered orally in varied concentrations. Each dosed group consisted of 5 animals. The prophylactic effect to anaphylaxis was expressed in terms of the ED50 value determined on the basis of the number of guinea pigs which had survived for not less than 2 hours after antigen spraying for each administration concentration of the test compound.
For `COc1cc(/C=C/C=C/C(=O)NCCCCN2CCC(c3c[nH]c4ccccc34)CC2)ccc1O` [Compound A, 1-[4-{5-(4-Hydroxy-3-methoxyphenyl)-(2E, 4E)-2,4-pentadienoylamino}butyl]-4-(3-indolyl)-piperidine], the 50% effective dose (ED50) – broadly, the dose at which the effect has come halfway, by size or by number of responders – came out at 0.5 mg/kg. For `COc1cc(/C=C/C=C/C(=O)NCCN2CCC(c3c[nH]c4ccccc34)CC2)cc(OC)c1O` [Compound C, 1-[2-{5-(4-Hydroxy-3,5-dimethoxyphenyl)-(2E, 4E)-2,4-pentadienoylamino}ethyl]-4-(3-indolyl)piperidine], the ED50 came to 0.5 mg/kg.

The subject of another assay is SRS-A synthesis or release from peritoneal exudate cells. The assay is described as follows: Anti-SRS-A activity (SRS-A synthesis or release from peritoneal exudate cells). It counts as cell-based, SD rats. The settings on record: rat peritoneal exudate cells, Ca++-ionophore A23187 1 μg/ml, indomethacin 10 μg/ml; SRS-A determined by contractility of isolated guinea pig ileum; read-out: Inhibitory Concentration IC50. The method, then:
Peritoneal exudate cells were collected from glycogen-injected SD rats and adjusted to 1×10^7 cells/ml with Tyrode's solution. One milliliter of the cell suspension was incubated with indomethacin (10 μg/ml) and each varied concentration of the test compound for 10 minutes and, then, further incubated with Ca^++ -ionophore (A23187, 1 μg/ml) for 10 minutes. The supernatant was collected by centrifugation and the SRS-A (slow-reacting substance of anaphylaxis) activity was determined in terms of contractility of the isolated guinea pig ileum in the presence of mepyramine, atropine and methysergide.
The results were expressed in terms of the 50% inhibitory concentration to SRS-A synthesis or release from peritoneal exudate cells.
In the case of `COc1cc(/C=C/C=C/C(=O)NCCN2CCC(c3c[nH]c4ccccc34)CC2)ccc1O` [Compound B, 1-[2-{5-(4-Hydroxy-3-methoxyphenyl)-(2E, 4E)-2,4-pentadienoylamino}ethyl]-4-(3-indolyl)piperidine], the IC50 worked out at 0.91 µg/mL (≈ 2.04 µM). On the same count and under the same terms, next, `COc1cc(/C=C/C=C/C(=O)NCCN2CCC(c3c[nH]c4ccccc34)CC2)cc(OC)c1O` [Compound C, 1-[2-{5-(4-Hydroxy-3,5-dimethoxyphenyl)-(2E, 4E)-2,4-pentadienoylamino}ethyl]-4-(3-indolyl)piperidine]: 0.68 µg/mL (≈ 1.43 µM); `COc1cc(/C=C/C=C/C(=O)NCCN2CCC(c3c[nH]c4ccccc34)CC2)ccc1OC(C)=O` [Compound D, 1-[2-{5-(4-Acetoxy-3-methoxyphenyl)-(2E, 4E)-2,4-pentadienoylamino}ethy]-4-(3-indolyl)piperidine]: 0.6 µg/mL (≈ 1.23 µM); `COc1cc(/C=C/C=C/C(=O)NCCN2CCC(c3c[nH]c4ccccc34)CC2)cc(OC)c1OC(C)=O` [Compound E, 1-[2-{5-(4-Acetoxy-3,5-dimethoxyphenyl)-(2E, 4E)-2,4-pentadienoylamino}ethyl]-4-(3-indolyl)piperidine]: 0.23 µg/mL (≈ 0.444 µM).

Turning to `O=C(/C=C/C=C/c1cc(Cl)c(O)c(Cl)c1)NCCN1CCC(c2c[nH]c3ccccc23)CC1` [Compound F, 1-[2-{5-(3,5-Dichloro-4-hydroxyphenyl)-(2E, 4E)-2,4-pentadienoylamino}ethyl]-4-(3-indolyl)piperidine], the IC50 came out at 0.65 µg/mL (≈ 1.34 µM).

The record behind these values is patent publication US5017703A, “Indolylpiperidine compounds, processes for the preparation thereof and pharmaceutical composition comprising the same” (Fujisawa Pharmaceutical Company, Ltd., priority 1988, dated 1991).
